In US8431593B2, “Heteroaryl amide derivatives” (H. Lundbeck A/S, priority 2006, dated 2013):
Where two headings read alike, the source gives them in different places. Blank lines part the entries; values can stand above or below the compound they belong to.

Target: T1, P2X7 receptor (Homo sapiens, UniProt Q99572)
T1 construct: host or cells: SH-SY5Y
T1 sequence (Q99572 1-595): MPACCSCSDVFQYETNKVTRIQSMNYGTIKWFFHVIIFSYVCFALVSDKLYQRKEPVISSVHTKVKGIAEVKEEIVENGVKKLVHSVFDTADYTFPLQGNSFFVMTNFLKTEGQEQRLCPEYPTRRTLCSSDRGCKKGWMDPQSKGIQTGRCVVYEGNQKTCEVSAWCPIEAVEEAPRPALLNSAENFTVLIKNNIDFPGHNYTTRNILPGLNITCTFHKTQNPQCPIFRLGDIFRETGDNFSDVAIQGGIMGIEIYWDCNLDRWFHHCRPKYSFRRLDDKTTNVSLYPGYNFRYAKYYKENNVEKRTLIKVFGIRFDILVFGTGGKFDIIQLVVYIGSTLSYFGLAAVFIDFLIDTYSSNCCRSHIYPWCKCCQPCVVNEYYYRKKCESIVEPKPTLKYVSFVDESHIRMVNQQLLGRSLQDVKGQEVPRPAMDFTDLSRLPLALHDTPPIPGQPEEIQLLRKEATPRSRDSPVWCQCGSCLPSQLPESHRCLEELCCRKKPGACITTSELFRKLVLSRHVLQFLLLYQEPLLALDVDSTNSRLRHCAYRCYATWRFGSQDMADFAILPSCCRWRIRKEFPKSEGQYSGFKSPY
Experiment: P2X7 calcium mobilization assay, high throughput, antagonist activity (Example 4A)
Format: cell-based
Method in brief: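 Antagonism was measured as calcium mobilization on FLIPR^TETRA after a 1 h room-temperature compound preincubation of dye-loaded cells. Baseline from no-agonist wells was subtracted from each well's maximum RFU.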

[1] = 50% decrease in the fluorescence response of cells exposed to 80 μM 2′(3′)-O-(4-benzoyl-benzoyl)adenosine 5′-triphosphate, Example 4A, read-out: IC50
[2] = 50% decrease in the fluorescence response of cells exposed to 80 μM of 2′(3′)-O-(4-benzoyl-benzoyl)adenosine 5′-triphosphate, determined as in Example 4A, read-out: IC50
[3] = fluorescence response of cells exposed to 80 μM 2′(3′)-O-(4-benzoyl-benzoyl)adenosine 5′-triphosphate, Example 4A, read-out: IC50
[4] = 50% decrease in the fluorescence response of cells exposed to 80 μM of 2′(3′)-O-(4-benzoyl-benzoyl)adenosine 5′-triphosphate, Example 4A, read-out: IC50
[5] = SH-SY5Y cells, 50% decrease in fluorescence response to 80 μM BzATP, read-out: IC50

Structure (SMILES): O=C(NCC12CC3CC(CC(C3)C1)C2)c1cccc2nc(CNCCN3CCCC3)cn12 [Compound 126, N-(adamantan-1-ylmethyl)-2-{[(2-pyrrolidin-1-ylethyl)amino]methyl}imi-dazo[1,2-a]pyridine-5-carboxamide]
- IC50: < 2000 nM

- IC50 [1]: < 2000 nM
Structure (SMILES): CCCN(C)C(=O)CNC(=O)c1cn2c(C(=O)NC[C@@H]3CC[C@H]4C[C@@H]3C4(C)C)cccc2n1 [Compound 505, 5-N-{[(1S,2R,5S)-6,6-dimethylbicyclo[3.1.1]hept-2-yl]methyl}-2-N-{2-[methyl(propyl)amino]-2-oxoethyl}imidazo[1,2-a]pyridine-2,5-dicarboxamide]

- IC50 [2]: < 2000 nM
Structure (SMILES): CC(C)(C)CCNC(=O)Cc1cn2c(C(=O)NCC3(c4cccnc4)CCCCC3)cccc2n1 [Compound 884, 2-{2-[(3,3-dimethylbutyl)amino]-2-oxoethyl}-N-[(1-pyridin-3-ylcyclohexyl)methyl] imidazo[1,2-a] pyridine-5-carboxamide]

- IC50 [3]: < 2000 nM
Structure (SMILES): COCC1CCCCN1C(=O)Cc1cn2c(C(=O)NCC(CC(C)C)c3ccccc3)cccc2n1 (stereo not shown) [Compound 241, 2-{2-[2-(methoxymethyl)piperidin-1-yl]-2-oxoethyl}-N-(4-methyl-2-phenylpentyl)imidazo [1,2-a]pyridine-5-carboxamide]

- IC50 [1]: < 2000 nM
Structure (SMILES): CC1(C)[C@@H]2CC[C@@H](CNC(=O)c3cccc4nc(CC(=O)N5C[C@@H]6C[C@H]5CN6)cn34)[C@H]1C2 [Compound 559, 2-{2-[(1S,4S)-2,5-diazabicyclo[2.2.1]hept-2-yl]-2-oxoethyl}-N-{[(1R,2R,5R)-6,6-dimethylbicyclo[3.1.1]hept-2-yl]methyl}imidazo[1,2-a]pyridine-5-carboxamide]

- IC50 [1]: < 2000 nM
Structure (SMILES): CN(C)CCN(C(=O)c1cn2c(C(=O)NCC34CC5CC(CC(C5)C3)C4)cccc2n1)C1CCNCC1 [Compound 617, 5-N-(adamantan-1-ylmethyl)-2-N-[2-(dimethylamino)ethyl]-2-N-piperidin-4-ylimidazo[1,2-a]pyridine-2,5-dicarboxamide]

- IC50 [4]: < 2000 nM
Structure (SMILES): CC(C)N(CCNC(=O)c1cn2c(C(=O)NCC34CC5CC(CC(C5)C3)C4)cccc2n1)C(C)C [Compound 652, 5-N-(adamantan-1-ylmethyl)-2-N-[2-(diisopropylamino)ethyl]imidazo [1,2-a] pyridine-2,5-dicarboxamide]

- IC50 [2]: < 2000 nM
Structure (SMILES): O=C(NCC1(c2ccc(Cl)cc2)CCCCC1)c1cccc2nc(C(Cc3ccccn3)C(=O)O)cn12 (stereo not shown) [Compound 937, 2-[5-({[1-(4-chlorophenyl)cyclohexyl]methyl}carbamoyl)imidazo[1,2-a]pyridin-2-yl]-3-pyridin-2-ylpropanoic acid]

- IC50 [3]: < 2000 nM
Structure (SMILES): CC1(C)[C@H]2CC[C@@H](CNC(=O)c3cccc4nc(C(=O)N5CCCC(N)C5)cn34)[C@@H]1C2 (stereo partly drawn) [Compound 325, 2-[(3-aminopiperidin-1-yl)carbonyl]-N-{[(1S,2R,5S)-6,6-dimethylbicyclo[3.1.1]hept-2-yl]methyl}imidazo[1,2-a]pyridine-5-carboxamide]

- IC50 [2]: < 2000 nM
Structure (SMILES): CCOC(=O)[C@@H]1CCCC[C@@H]1c1cn2c(C(=O)NCC34CC5CC(CC(C5)C3)C4)cccc2n1 (relative stereo) [Compound 996, ethyl rel-(1R,2S)-2-{5-[(adamantan-1-ylmethyl)carbamoyl]imidazo[1,2-a]pyridin-2-yl} cyclohexane-carboxylate]

Structure (SMILES): CN(C)C1CCCN(C(=O)Cc2cn3c(C(=O)NCC4(c5cccnc5)CCCCC4)cccc3n2)C1 (stereo not shown) [Compound 893, 2-{2-[3-(dimethylamino)piperidin-1-yl]-2-oxoethyl}-N-[(1-pyridin-3-ylcyclohexyl)methyl] imidazo[1,2-a] pyridine-5-carboxamide]
- IC50 [2]: < 2000 nM

- IC50 [3]: < 2000 nM
Structure (SMILES): CN(C(=O)c1cn2c(NC(=O)CC34CC5CC(CC(C5)C3)C4)cccc2n1)C1CCOC1 (stereo not shown) [Compound 393, 5-[(adamantan-1-ylacetyl)amino]-N-methyl-N-(tetrahydrofuran-3-yl)imidazo[1,2-a]pyridine-2-carboxamide]

- IC50 [5]: < 2000 nM
Structure (SMILES): O=C(Cc1cn2c(C(=O)NCC34CC5CC(CC(C5)C3)C4)cccc2n1)NN1CCCCCC1 [Compound 163, N-(adamantan-1-ylmethyl)-2-[2-(azepan-1-ylamino)-2-oxoethyl]imidazo[1,2-a]pyridine-5-carboxamide]

- IC50 [3]: < 2000 nM
Structure (SMILES): CN(C)C(=O)c1cn2c(NC(=O)CC34CC5CC(CC(C5)C3)C4)cccc2n1 [Compound 370, 5-[(adamantan-1-ylacetyl)amino]-N,N-dimethylimidazo[1,2-a]pyridine-2-carboxamide]

- IC50 [4]: < 2000 nM
Structure (SMILES): CC(C(=O)N1CC[C@@H](N)C1)c1cn2c(C(=O)NCC34CC5CC(CC(C5)C3)C4)cccc2n1 (stereo partly shown) [Compound 752, N-(adamantan-1-ylmethyl)-2-[2-(3-aminopyrrolidin-1-yl)-1-methyl-2-oxoethyl]imidazo [1,2-a]pyridine-5-carboxamide]

- IC50 [5]: < 2000 nM
Structure (SMILES): COCC1CCCN(C(=O)Cc2cn3c(C(=O)NCC45CC6CC(CC(C6)C4)C5)cccc3n2)C1 (stereo not shown) [Compound 176, N-(adamantan-1-ylmethyl)-2-{2-[3-(methoxymethyl)piperidin-1-yl]-2-oxoethyl}imidazo[1,2-a]pyridine-5-carboxamide]

- IC50 [5]: < 2000 nM
Structure (SMILES): CCOC(=O)c1nc2cccc(C(=O)NCC34CC5CC(CC(C5)C3)C4)n2c1Cl [Compound 15, ethyl 5-[(adamantan-1-ylmethyl)carbamoyl]-3-chloroimidazo[1,2-a]pyridine-2-carboxylate]

- IC50 [1]: < 2000 nM
Structure (SMILES): CCCN(C)C(=O)c1cn2c(C(=O)NC[C@@H]3CC[C@H]4C[C@@H]3C4(C)C)cccc2n1 [Compound 460, 5-N-{[(1S,2R,5S)-6,6-dimethylbicyclo[3.1.1]hept-2-yl]methyl}-2-N-methyl-2-N-propylimidazo[1,2-a]pyridine-2,5-dicarboxamide]

- IC50 [2]: < 2000 nM
Structure (SMILES): CN(Cc1cccc(N)n1)C(=O)c1cn2c(C(=O)NCC34CC5CC(CC(C5)C3)C4)cccc2n1 [Compound 825, 5-N-(adamantan-1-ylmethyl)-2-N-[(6-aminopyridin-2-yl)methyl]-2-N-methylimidazo[1,2-a]pyridine-2,5-dicarboxamide]

- IC50 [4]: < 2000 nM
Structure (SMILES): CC(C(=O)N1CCC[C@@H](NC(=O)OC(C)(C)C)C1)c1cn2c(C(=O)NCC34CC5CC(CC(C5)C3)C4)cccc2n1 (stereo in doubt) [Compound 750, tert-butyl [1-(2-{5-[(adamantan-1-ylmethyl)carbamoyl]imidazo[1,2-a]pyridin-2-yl}propanoyl)piperidin-3-yl]carbamate]

- IC50 [4]: < 2000 nM
Structure (SMILES): CC(C#N)c1cn2c(C(=O)NCC34CC5CC(CC(C5)C3)C4)cccc2n1 (stereo not shown) [Compound 761, N-(adamantan-1-ylmethyl)-2-(1-cyanoethyl)imidazo [1,2-a]pyridine-5-carboxamide]

- IC50 [3]: < 2000 nM
Structure (SMILES): O=C(O)CS(=O)(=O)Cc1cn2c(C(=O)NCC34CC5CC(CC(C5)C3)C4)cccc2n1 [Compound 289, [({5-[(adamantan-1-ylmethyl)carbamoyl]imidazo[1,2-a]pyridin-2-yl}methyl)sulfonyl] acetic acid]

- IC50 [5]: < 2000 nM
Structure (SMILES): CN(C)C1CCN(C(=O)c2cn3c(C(=O)NCC45CC6CC(CC(C6)C4)C5)cccc3n2)C1 (stereo not shown) [Compound 93, N-(adamantan-1-ylmethyl)-2-{[3-(dimethyl-amino)pyrrolidin-1-yl]carbonyl}imidazo[1,2-a]pyridine-5-carboxamide]

- IC50 [5]: < 2000 nM
Structure (SMILES): O=C(NCC12CC3CC(CC(C3)C1)C2)c1cccc2nc(C(=O)N3CCC(O)CC3)cn12 [Compound 106, N-(adamantan-1-ylmethyl)-2-[(4-hydroxypiperidin-1-yl)carbonyl]imidazo[1,2-a]pyridine-5-carboxamide]

- IC50 [4]: < 2000 nM
Structure (SMILES): CC(C)N[C@@H]1CCN(C(=O)c2cn3c(NC(=O)CC45CC6CC(CC(C6)C4)C5)cccc3n2)C1 (stereo in doubt) [Compound 743, 2-adamantan-1-yl-N-(2-{[3-(isopropylamino)pyrrolidin-1-yl]carbonyl}imidazo[1,2-a]pyridin-5-yl)acetamide]

- IC50 [3]: < 2000 nM
Structure (SMILES): CCOC(=O)C(C)c1cn2c(C(=O)NCC34CC5CC(CC(C5)C3)C4)cccc2n1 (stereo not shown) [Compound 338, ethyl 2-{5-[(adamantan-1-ylmethyl)carbamoyl]imidazo[1,2-a]pyridin-2-yl}propanoate]

- IC50 [4]: < 2000 nM
Structure (SMILES): CN1CCCC1CCNC(=O)c1cn2c(C(=O)NCC34CC5CC(CC(C5)C3)C4)cccc2n1 (stereo not shown) [Compound 649, 5-N-(adamantan-1-ylmethyl)-2-N-[2-(1-methylpyrrolidin-2-yl)ethyl]imidazo[1,2-a]pyridine-2,5-dicarboxamide]

- IC50 [5]: < 2000 nM
Structure (SMILES): CC(=O)NCCc1cn2c(C(=O)NCC34CC5CC(CC(C5)C3)C4)cccc2n1 [Compound 202, 2-(2-acetamidoethyl)-N-(adamantan-1-ylmethyl)imidazo[1,2-a]pyridine-5-carboxamide]
